Laboratory results taken from patent publication US20240270786A1, “STEROID COMPOUNDS” (Epirium Bio Inc., priority 2022, published 2024).

Tests used:
[1] = system: mitochondrial ATP synthase; experiment: ATP synthesis (oxygen consumption, Seahorse XF96) in fresh heart mitochondria; format: biochemical, mouse; settings: Complex I or Complex II substrates (FIG. 1, FIG. 2)
Excerpt: (§1) To assess whether the fraction of synthetic and reverse hydrolytic activities of mitochondrial ATP synthase can be measured in the same preparation, a protocol was developed to monitor changes in oxygen consumption and proton release in response to changes in mitochondrial ATP synthase activity. The proton released and the concomitant changes in the pH can be monitored using the ECAR (extracellular acidification) channel in the Agilent Seahorse XF analyzer using isolated mitochondria, to ensure that the changes in pH cannot be attributed to glycolysis or other contributors to ECAR.
Mice were anesthetized with isoflurane followed by a cervical dislocation, and the heart was immediately removed and placed in ice cold relaxation buffer (5 mM sodium pyrophosphate, 100 mM KCl, 5 mM EGTA, 5 mM HEPES; pH 7.4). […] The mitochondrial pellets were re-suspended in ice cold HES buffer and mitochondrial protein was measured with a BCA assay (Pierce). […]
Oxygen consumption was measured in isolated fresh intact mitochondria from mouse heart, as oxygen consumption is linked to maximal ATP synthesis and proton release when mitochondria are respiring either in the presence of substrates and ADP (ATP synthesizing mitochondria or state 3) or in the presence of substrates but not ADP (state 4). […]

[2] = system: mitochondrial ATP synthase; experiment: ATP hydrolysis (acidification, Seahorse XF96) in fresh heart mitochondria; format: biochemical, mouse; settings: fresh heart mitochondria (FIG. 1, FIG. 2)
Excerpt: as §1
Mice were anesthetized with isoflurane followed by a cervical dislocation, and the heart was immediately removed and placed in ice cold relaxation buffer (5 mM sodium pyrophosphate, 100 mM KCl, 5 mM EGTA, 5 mM HEPES; pH 7.4). The heart was squeezed with tweezers to remove blood, minced with scissors, and then placed in a glass-glass Dounce homogenizer with 3 mL of HES homogenization buffer (250 mM sucrose, 5 mM HEPES, 1 mM EDTA; pH to 7.2, adjusted with KOH). The heart tissue was homogenized first with the loose pestle and followed by the tight pestle. The homogenized tissue was placed in a pre-chilled 15 mL conical tube and centrifuged at 900×g (4° C.) for 10 minutes (min). The supernatant was removed, placed in a new tube and centrifuged again at 900×g for 10 min. The supernatant was then transferred to 2 mL microcentrifuge tubes and centrifuged at 10,000×g (4° C.) for 10 min. The mitochondrial pellets were re-suspended in ice cold HES buffer and mitochondrial protein was measured with a BCA assay (Pierce). The concentrated mitochondrial pellet was stored on ice. […]
ATP hydrolysis capacity or state 4 acidification was measured using Seahorse XF96 as described in Divakaruni et al. (2018) Anal Biochem 552:60-65 and Acin-Perez et al. (2021) Life 11(9):949, in MAS (70 mM Sucrose, 220 mM Mannitol, 5 mM KH2PO4, 5 mM MgCl2, 1 mM EGTA, 2 mM HEPES; pH 7.2). […]

SMILES | ATP synthesis [1] | ATP hydrolysis [2]
CN1C(=O)CC[C@@]2(C)C1=CCC1C2[C@@H](O)C[C@@]2(C)C1CC[C@@H]2NC(=O)C1CC1 (stereo partly drawn) [Compound 26, N-((4aR,5S,6aS,7S)-5-hydroxy-1,4a,6a-trimethyl-2-oxo-2,3,4,4a,4b,5,6,6a,7,8,9,9a,9b,10-tetradecahydro-1H-indeno[5,4-f]quinolin-7-yl)cyclopropanecarboxamide] | decreased ATP synthesis at the highest concentration | only mild changes in hydrolysis
CNC(=O)[C@H]1CCC2C3CC=C4N(C)C(=O)CC[C@]4(C)C3[C@@H](O)C[C@@]21C (stereo partly drawn) [Compound 40, (4aR,5S,6aS)-5-hydroxy-N,1,4a,6a-tetramethyl-2-oxo-2,3,4,4a,4b,5,6,6a,7,8,9,9a,9b,10-tetradecahydro-1H-indeno[5,4-f] quinoline-7-carboxamide] |  | only mild changes in hydrolysis
